Among the data in paper PMC3445454, “Broad and Cross-Clade CD4^+ T-Cell Responses Elicited by a DNA Vaccine Encoding Highly Conserved and Promiscuous HIV-1 M-Group Consensus Peptides” (PLoS ONE, 2012) are IC50 values, retold here.

Positions count from the first letter of the chain named. Like-named read-outs stand apart in the source and are kept apart here. Ends that are not written are not given here.

What all share (test): biochemical
Experiment [1] deals with HLA-DR DRB3*01:01 (Homo sapiens, UniProt P01903+P79483). Format: binding.
Experiment [2] deals with T1, HLA-DP DPA1*01:03/DPB1*20:01 (Homo sapiens, UniProt P04440+P20036, A65V/A84D/A85E/E86D/F38Y/G113D/G114E/G40L/I94L/L37V/M116V/P115A/R125K/T199I).
T1 sequence (P20036 29-260): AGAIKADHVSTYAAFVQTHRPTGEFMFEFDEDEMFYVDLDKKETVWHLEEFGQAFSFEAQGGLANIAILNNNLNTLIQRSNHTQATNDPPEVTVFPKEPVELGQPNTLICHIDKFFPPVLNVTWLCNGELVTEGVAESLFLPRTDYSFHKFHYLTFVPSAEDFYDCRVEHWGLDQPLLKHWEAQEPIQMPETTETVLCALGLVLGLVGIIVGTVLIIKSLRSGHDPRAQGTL
T1 sequence (P04440 30-258 L37V/F38Y/G40L/A65V/A84D/A85E/E86D/I94L/G113D/G114E/P115A/M116V/R125K/T199I/V234M): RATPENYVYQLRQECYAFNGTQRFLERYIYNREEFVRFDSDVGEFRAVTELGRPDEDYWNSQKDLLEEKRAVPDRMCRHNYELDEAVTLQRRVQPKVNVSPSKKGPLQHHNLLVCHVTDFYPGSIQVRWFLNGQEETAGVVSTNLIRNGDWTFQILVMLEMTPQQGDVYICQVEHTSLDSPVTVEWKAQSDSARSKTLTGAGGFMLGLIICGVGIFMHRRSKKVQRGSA
Format: binding.

Experiment [3] concerns the target HLA-DR DRB1*08:02 (Homo sapiens, UniProt P01903+P01911, A100R/A103L/A169T/F76Y/H45Y/I96F/K41T/L162R/M171V/P40S/Q125H/Q178H/Q39Y/Q99D/R218S/R42G/S66Y/V115G/W38E). It is filed as binding.
In experiment [4] the target is T2, HLA-DP DPA1*01:03/DPB1*02:01 (Homo sapiens, UniProt P04440+P20036, A65V/A84D/A85E/K98E).
T2 sequence (P20036 29-260): T1 sequence (P20036 29-260)
T2 sequence (P04440 30-258 A65V/A84D/A85E/K98E): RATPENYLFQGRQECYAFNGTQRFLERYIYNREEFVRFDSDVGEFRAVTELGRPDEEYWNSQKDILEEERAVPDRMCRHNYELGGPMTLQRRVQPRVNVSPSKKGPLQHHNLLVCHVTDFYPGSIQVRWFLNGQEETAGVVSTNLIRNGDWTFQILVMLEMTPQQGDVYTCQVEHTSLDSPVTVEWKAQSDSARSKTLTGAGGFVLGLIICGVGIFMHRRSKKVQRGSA
It is filed as binding.

Experiment [5] deals with HLA-DR DRB1*15:01 (Homo sapiens, UniProt P01903+P01911). It is filed as binding.
Experiment [6] deals with HLA-DR DRB1*01:01 (Homo sapiens, UniProt P01903+P01911, A100R/D57E/F55L/F60I/F76Y/I96L/L162R/M171V/P40L/Q125E/R42F/V115G/Y59C). It is filed as binding.
In experiment [7] the target is T3, HLA-DP DPA1*02:01/DPB1*05:01 (Homo sapiens, UniProt P04440+P20036, A65V/A84E/F191V/F64L/G113D/G114E/K142R/L158P/M116V/M62Q/P115A/Q81R/R125K/T114A/T199I/T259P/V234M).
T3 sequence (P20036 29-260 A42M/M62Q/Q81R/T114A/K142R/L158P/F191V/T259P): T1 sequence (P20036 29-260) with A14M, M34Q, Q53R, T86A, K114R, L130P, F163V, T231P
T3 sequence (P04440 30-258 F64L/A65V/A84E/G113D/G114E/P115A/M116V/R125K/T199I/V234M): T1 sequence (P04440 30-258 L37V/F38Y/G40L/A65V/A84D/A85E/E86D/I94L/G113D/G114E/P115A/M116V/R125K/T199I/V234M) with V8L, Y9F, L11G, F35L, D55E, E56A, D57E, L65I
Format: binding.

Experiment [8] has as its target HLA-DP DPA1*03:01/DPB1*04:02 (Homo sapiens, UniProt P04440+P20036, A42M/A65V/A84D/A85E/L207M/L97S).
Experiment [9] concerns the target HLA-DR DRB4*01:01 (Homo sapiens, UniProt P01903+P13762, G164S). It is filed as binding.
Experiment [10] has as its target HLA-DR DRB1*04:05 (Homo sapiens, UniProt P01903+P01911, A100R/A169T/D86S/F76Y/I96L/K127E/L162R/M171V/N62H/P40V/Q125Y/R42H/S133A/S149N/S66Y/V115G/V209L/W38E). Format: binding.
Experiment [11] deals with HLA-DR DRB5*01:01 (Homo sapiens, UniProt P01903+Q30154). It is filed as binding.
Experiment [12] has as its target HLA-DR DRB1*04:01 (Homo sapiens, UniProt P01903+P01911, A100K/A169T/F76Y/I96L/K127E/L162R/M171V/N62H/P40V/Q125Y/R42H/S133A/S149N/S66Y/V115G/V209L/W38E). Format: binding.
Experiment [13] addresses HLA-DR DRB1*16:02 (Homo sapiens, UniProt P01903+P01911, A100R/F76Y/I96L/Q99D/V115G). It is filed as binding.
Setting [14] is: read-out: Binding capacity/IC50 (nM) DPA1*01:03 DPB1*02:01.
[15] abbreviates: read-out: Binding capacity/IC50 (nM) DPA1*02:01 DPB1*05:01.
Where [16] appears, read: read-out: Binding capacity/IC50 (nM) DRB5*01:01.
The mark [17] stands for this setting: read-out: Binding capacity/IC50 (nM) DRB3*01:01.
The mark [18] stands for this setting: read-out: Binding capacity/IC50 (nM) DPA1*01:03 DPB1*20:01.
Where [19] appears, read: read-out: Binding capacity/IC50 (nM) DRB4*01:01.
Where [20] appears, read: read-out: Binding capacity/IC50 (nM) DRB1*15:01.

`CC[C@H](C)[C@H](NC(=O)[C@H](C)NC(=O)[C@@H](N)CCC(=O)O)C(=O)N[C@H](C(=O)N[C@@H](CCCNC(=N)N)C(=O)N[C@H](C(=O)N[C@@H](CC(C)C)C(=O)N[C@@H](CCC(N)=O)C(=O)N[C@@H](CCC(N)=O)C(=O)N[C@@H](CC(C)C)C(=O)N[C@@H](CC(C)C)C(=O)N[C@@H](Cc1ccccc1)C(=O)N[C@H](C(=O)N[C@@H](Cc1c[nH]cn1)C(=O)N[C@@H](Cc1ccccc1)C(=O)N[C@@H](CCCNC(=N)N)C(=O)N[C@H](C(=O)NCC(=O)N[C@@H](CS)C(=O)N[C@@H](CCC(N)=O)C(=O)N[C@@H](Cc1c[nH]cn1)C(=O)N[C@@H](CO)C(=O)N[C@@H](CCCNC(=N)N)C(N)=O)[C@@H](C)CC)[C@@H](C)CC)[C@@H](C)CC)[C@@H](C)CC` [vpr(58-80)]: the IC50 in [1] is 11600 nM; in experiment [2], 398 nM; in experiment [3] it was 61 nM; in experiment [4] (setting [14]), 717 nM; in experiment [5], 149 nM; in [6], 305 nM. Besides, the IC50 was 2990 nM in experiment [7] (setting [15]); 96 nM in experiment [8]; 475 nM in experiment [9]; 294 nM in experiment [10]; 443 nM in [11] (setting [16]); 361 nM in experiment [12]. The same molecule yielded an IC50 in experiment [13] of 588 nM.
As to “VVIQDNSDIKVVPRRKAKII-NH2 [integrase(249-268)]”, the IC50 in experiment [1] (setting [17]) turned out to be 2650 nM; in experiment [2] (setting [18]), 1080 nM; in [3], 89 nM; in experiment [4], 7420 nM; in experiment [5], 139 nM; in experiment [6] it was 110 nM. In addition, the IC50 in [7] (setting [15]) is 329 nM; in experiment [8], 3670 nM; in experiment [9] (setting [19]), 847 nM; in experiment [10], 6080 nM; in experiment [11], 46 nM; in experiment [12], 2870 nM. In experiment [13], the IC50 turned out to be 500 nM.
As for `CSCC[C@H](NC(=O)[C@H](CCCCN)NC(=O)[C@H](C)NC(=O)[C@H](Cc1ccc(O)cc1)NC(=O)[C@H](CCCCN)NC(=O)CNC(=O)[C@@H](NC(=O)[C@H](CCCCN)NC(=O)[C@H](CC(C)C)NC(=O)[C@H](CC(N)=O)NC(=O)[C@H](CCCCN)NC(=O)[C@H](Cc1ccccc1)NC(=O)[C@@H]1CCCN1C(=O)[C@H](CCC(=O)O)NC(=O)[C@@H](N)CCC(N)=O)[C@@H](C)O)C(N)=O` [RT(343-357)], the IC50 in experiment [1] (setting [17]) was found to be 5610 nM; in experiment [2] (setting [18]), 2790 nM; in experiment [3] it was 947 nM; in [4] (setting [14]), 115 nM; in experiment [5] (setting [20]) it was 47 nM; in experiment [6] it was 81 nM. Also, the IC50 in experiment [7] (setting [15]) turned out to be 1340 nM; in experiment [8] it was 4210 nM; in [9] (setting [19]), 2920 nM; in experiment [10], 277 nM; in experiment [11] it was 1.6 nM; in experiment [12], 591 nM. Also, the IC50 in [13] came out at 464 nM.
On to `CC[C@H](C)[C@H](NC(=O)[C@@H](NC(=O)[C@H](CCCCN)NC(=O)[C@@H](NC(=O)[C@@H]1CCCN1C(=O)[C@H](Cc1c[nH]c2ccccc12)NC(=O)[C@H](CCCNC(=N)N)NC(=O)CNC(=O)[C@H](C)NC(=O)[C@H](CC(C)C)NC(=O)[C@H](CCCCN)NC(=O)[C@H](CC(C)C)NC(=O)[C@@H](NC(=O)[C@H](Cc1ccccc1)NC(=O)[C@H](Cc1ccc(O)cc1)NC(=O)[C@H](C)NC(=O)[C@@H](NC(=O)[C@@H](N)CCC(=O)O)[C@@H](C)O)[C@@H](C)CC)C(C)C)C(C)C)C(N)=O` [integrase(96-113)], for which the IC50 in experiment [1] (setting [17]) was found to be 583 nM; in experiment [2] (setting [18]), 857 nM; in experiment [3] (read-out: Binding capacity/IC50 (nM) DRB1*08:02), 365 nM; in experiment [4] (setting [14]), 697 nM; in [5] (setting [20]) it was 284 nM; in [6] (read-out: Binding capacity/IC50 (nM) DRB1*01:01) it was 4.3 nM. Further, the IC50 came out at 621 nM in experiment [7]; 141 nM in experiment [8]; 3080 nM in [9] (setting [19]); 629 nM in experiment [10] (read-out: Binding capacity/IC50 (nM) DRB1*04:05); 4.4 nM in [11] (setting [16]); 1770 nM in experiment [12] (read-out: Binding capacity/IC50 (nM) DRB1*04:01). Besides, the IC50 in experiment [13] (read-out: Binding capacity/IC50 (nM) DRB1*16:02) was determined as 106 nM.
For `CC[C@H](C)[C@H](NC(=O)[C@H](C)NC(=O)[C@H](CCCCN)NC(=O)[C@H](CCCCN)NC(=O)CNC(=O)[C@H](CS)NC(=O)[C@@H](NC(=O)[C@H](CCC(=O)O)NC(=O)[C@@H](NC(=O)[C@H](CC(C)C)NC(=O)[C@@H](NC(=O)[C@H](CCC(N)=O)NC(=O)[C@H](CC(=O)O)NC(=O)[C@H](Cc1ccc(O)cc1)NC(=O)[C@H](CCC(N)=O)NC(=O)[C@H](CCCNC(=N)N)NC(=O)[C@@H](NC(=O)[C@H](CCCCN)NC(=O)[C@@H](NC(=O)[C@@H](N)Cc1ccccc1)[C@@H](C)CC)C(C)C)[C@@H](C)CC)[C@@H](C)CC)[C@@H](C)CC)C(=O)NCC(=O)N[C@H](C(=O)N[C@H](C(N)=O)C(C)C)[C@@H](C)O` [protease(53-75)], the IC50 in experiment [1] (setting [17]) turned out to be 545 nM; in [2] (setting [18]), 19 nM; in experiment [3], 325 nM; in experiment [4] (setting [14]), 41 nM; in [5] (setting [20]), 111 nM; in experiment [6], 29 nM. In addition, the IC50 in experiment [7] (setting [15]) was found to be 53 nM; in [8], 342 nM; in experiment [9] (setting [19]), 302 nM; in [10], 282 nM; in experiment [11] (setting [16]) it was 93 nM; in [12] it was 675 nM. Further, the IC50 in experiment [13] was 388 nM.
